Publication PMC8584173, “The Cytotoxic Effect of Copper (II) Complexes with Halogenated 1,3-Disubstituted Arylthioureas on Cancer and Bacterial Cells” (International Journal of Molecular Sciences, 2021)
Where “and” joins values, the source holds several entries; their conditions need not be identical. Equal entries are not always repeated.

Legend:
[1] = tested on: SW480, SW620, PC3 cancer cells; experiment: MTT cytotoxicity assay, all cancer cell lines; format: cell-based, human; conditions: span or bound over SW480, SW620, PC3; 72 h; read-out: IC50 over the tested cancer cell lines
Protocol: The human primary (SW480), metastatic (SW620) colon cancer, metastatic prostate cancer (PC3) and human immortal keratinocyte (HaCaT) cell lines were purchased from the American Type Culture Collection (ATCC, Rockville, USA). The cells were cultured in medium according to protocols (MEM for SW480 and SW620, RPMI 1640 for PC3 and DMEM for HaCaT cells) supplemented with 10% fetal bovine serum (FBS), penicillin (100 U/mL) and streptomycin (100 μg/mL) and cultured in 37 °C/ 5% CO2 humidified incubator. The cells were cultured until appropriate confluence was achieved (80–90%). Next, they were harvested by treatment with 0.25% trypsin (Gibco Life Technologies, USA) and used for studies.
Cells without studied compounds in medium were used as a control.
The cell viability was assessed by determination of MTT salt (3-(4,5-dimethylthiazol-2-yl)-2,5-diphenyltetrazolium bromide) conversion by mitochondrial dehydrogenase. MTT assay was performed as previously described. Experiments were repeated three times. Cell viability was presented as a percentage of MTT reduction in the treated cells versus the control cells. Number of viable cells cultured without studied compounds was assumed to be 100%. Decreased relative MTT level means decreased cell viability. Thiourea complexes with the highest cytotoxic potential assessed by MTT determination (with the lowest IC50) were chosen for subsequent assessments of cytotoxicity mechanisms.

[2] = tested on: Peroxiredoxin-5, mitochondrial (PRDX5_HUMAN); experiment: LC–MS proteome analysis, PRDX5; format: cell-based, Homo sapiens; conditions: IC50 concentration, % of control
Protocol: (§1) Enzymes involved in oxidoreductive potential were analyzed in the cell lysates obtained after treatment cells with selected conjugates for 24 h. Cells were washed with phosphate-buffered saline (PBS) and harvested, then centrifuged at 1000× g for 10 min. Then, lysis buffer (containing protease inhibitor, 1% RIPA Lysis and Extraction Buffer (ThermoFisher)) and cold PBS were added, and samples were sonicated three times in ice bath. Next, the cell lysates were centrifuged at 14,000× g at 4 °C for 15 min, and then supernatants were stored at […] before use. Protein concentration was measured by the Bradford method.
(§2) Normalized protein concentrations (5 µg) from cell lysate were precipitated by ice cold (–20 °C) acetonitrile (ACN, Merck, in ratio 1:4). Then, samples were centrifuged (–9 °C, 30 min., 18,000× g), the supernatant was discarded and ACN excess was evaporated using a vacuum centrifuge (5 min., room temp.). Protein pellet was dissolved in 40 mM ammonium bicarbonate. An amount of 500 mM dithiothreitol (DTT, with final concentration 20 mM) and 1 M iodoacetamide (IAA, with final concentration 40 mM) were used for reduction and alkylation processes. After 16 h of incubation in 37 °C with Trypsin Gold (Promega), digested protein samples were diluted with 0.1% formic acid (ThermoFisher) and centrifuged (+2 °C, 30 min, 18,000× g).
(§3) LC–MS analysis was carried out with the use of nanoUHPLC (nanoElute, Bruker) coupled by CaptiveSpray (Bruker) to ESI-Q-TOF mass spectrometer (Compact, Bruker). Two-column separation method was used, i.e., pre-column (300 µm × 5 mm, C18 PepMap 100, 5 µm, 100Å, Thermo Scientific) and Aurora separation column with CSI fitting (75 µm × 250 mm, C18 1.6 µm) in gradient 2% B to 35% B in 90 min with the 300 nL/min flow rate. Mobile phases (A) 0.1% formic acid in water and (B) 0.1% formic acid in ACN were used.
(§4) Sample ionizations were performed at a gas flow of 3.0 L/min, temperature of 150 °C and voltage of the capillary at 1600 V. The quadrupole energy was fixed to 5.0 eV and collision chamber energy 7.0 eV, with an ion transfer time of 90 µs. The ions were analyzed in the positive polarity mode in the range 150–2200 m/z, with the acquisition frequency of the 1 Hz spectrum, as well as with the autoMS/MS system.
(§5) The collected spectra were analyzed and calibrated using DataAnalysis software (Bruker) and then identified in ProteinScape (Bruker) by the MASCOT server. Protein identification was conducted using the online SwissProt and NCBIprot databases, and their references and biological significance were identified using Reactome.org, String.org and KEGG.

interleukin-6 (IL-6) = experiment: IL-6 level assay (ELISA); format: cell-based, human; conditions: 72 h; for decrease of IL-6 level / reduction of IL-6 level, times: SW480, IC50 dose, vs control; for reduction of IL-6 secretion, times: PC3, IC50 dose
Protocol: IL-6 concentration at all studied cancer cells and normal HaCaT cell lines was measured by ELISA kit (Diaclon SAS Besancon Cedex, France). […] IL-6 in cell culture supernatant was measured using enzyme-linked immunosorbent assay in accordance with the manufacturer’s protocol.

[3] = tested on: Peroxiredoxin-2 (PRDX2_HUMAN); experiment: LC–MS proteome analysis, PRDX2; format: cell-based, Homo sapiens; conditions: IC50 concentration, % of control
Protocol: as §1, §2, §3, §4, §5

SW480 cells = experiment: Annexin V-FITC/PI flow cytometry, SW480; format: cell-based, human; conditions: for apoptosis of SW480 cells: at 4 μM (supplement text)
Protocol: (§6) The cells were cultured and harvested under the conditions described in the cell culture section. […] The effect of these compounds on the process of early and late apoptosis and necrosis was determined, as described previously, by dual staining with annexin V-FITC and propidium iodide according to manufacturer’s protocol (Becton Dickinson). The cells that were annexin V-FITC positive and PI-negative were identified as early apoptotic and annexin V-FITC and PI-positive as late apoptotic or necrotic.

PC3 cells = experiment: Annexin V-FITC/PI flow cytometry, PC3; format: cell-based, human; conditions: PC3, IC50 dose, 72 h
Protocol: as §6

SW620 cells [4] = experiment: Annexin V-FITC/PI flow cytometry, SW620; format: cell-based, human; conditions: SW620, IC50 dose, 72 h
Protocol: as §6

[5] = tested on: detoxifying and ROS-scavenging enzymes (GST, GR, SOD, PRDX); experiment: LC–MS proteome analysis, all 12 tested enzymes (text summaries); format: cell-based, human; conditions: PC3, IC50 concentration, span over enzymes
Protocol: as §1, §2
LC–MS analysis was carried out with the use of nanoUHPLC (nanoElute, Bruker) coupled by CaptiveSpray (Bruker) to ESI-Q-TOF mass spectrometer (Compact, Bruker). […]
as §4
The collected spectra were analyzed and calibrated using DataAnalysis software (Bruker) and then identified in ProteinScape (Bruker) by the MASCOT server. […]

SW620 cells [6] = experiment: LDH release assay, SW620; format: cell-based, human; conditions: 72 h
Protocol: The presence of lactate dehydrogenase (LDH) in culture medium indicates a disturbance of the integrity of the cellular membrane. The LDH activity was performed after 72 h incubation of cells (1 × 10^4 cells per well) in 96-well plates with selected compounds according to manufacturer’s protocol (Roche Diagnostics, Germany), as was described by Chrzanowska et al.. Compound mediated cytotoxicity was determined using equation: ((A test sample−A low control)/ (A high control−A low control)) × 100% (A-absorbance), where “low control” means cells in medium with 2% FBS without tested compounds, and “high control” means cells incubated in medium with 2% FBS and 1% Triton X-100 (100% LDH release). The cytotoxicity was expressed as percentage of LDH release as compared with the maximum release of LDH from Triton-X-100-treated cells.

O=[N+]([O-])c1cc(NC2=[N+](c3ccc(Cl)c([N+](=O)[O-])c3)[Cu-2]3([S]2)[S]C(Nc2ccc(Cl)c([N+](=O)[O-])c2)=[N+]3c2ccc(Cl)c([N+](=O)[O-])c2)ccc1Cl [Compound 6, Copper (II) complex with 1,3-bis(4-chloro-3-nitrophenyl)thiourea]
IC50 [1]: ≥ 20.3 µM

O=[N+]([O-])c1cc([N+]2=C(Nc3ccc(Br)cc3)[S][Cu-2]23[S]C(Nc2ccc(Br)cc2)=[N+]3c2ccc(Cl)c([N+](=O)[O-])c2)ccc1Cl [Compound 3, Copper (II) complex with 1-(4-bromophenyl)-3-(4-chloro-3-nitrophenyl)thiourea]
IC50 [1]: ≤ 10 µM | Protein Intensity, % (PRDX5) ([2]; PC3, 24 h): 40.9% | Protein Intensity, % (PRDX5) ([2]; SW480, 24 h): 84.8% | Protein Intensity, % (PRDX5) ([2]; SW620, 24 h): 82.4% | decrease of IL-6 level (interleukin-6 (IL-6)): ≤ 30% | Protein Intensity, % (PRDX2) ([3]; PC3, 24 h): 47.3% | Protein Intensity, % (PRDX2) ([3]; SW480, 24 h): 93.7% | Protein Intensity, % (PRDX2) ([3]; SW620, 24 h): 71.6% | early apoptosis, % of cells (SW480 cells; SW480, IC50 dose, 72 h): ≤ 40% | early apoptosis, % of cells (PC3 cells): 45.5% ± 3.5% | early apoptosis, % of cells (SW620 cells [4]): approximately 20% | reduction of intensity of the 12 tested enzymes [5]: 29.4–69.1%

O=[N+]([O-])c1cc([N+]2=C(Nc3ccccc3F)[S][Cu-2]23[S]C(Nc2ccccc2F)=[N+]3c2ccc(Cl)c([N+](=O)[O-])c2)ccc1Cl [Compound 7, Copper (II) complex with 1-(2-fluorophenyl)-3-(4-chloro-3-nitrophenyl)thiourea]
IC50 [1]: ≤ 10 µM | Protein Intensity, % (PRDX5) ([2]; PC3, 24 h): 36.7% | Protein Intensity, % (PRDX5) ([2]; SW480, 24 h): 91.0% | Protein Intensity, % (PRDX5) ([2]; SW620, 24 h): 81.4% | decrease of IL-6 level (interleukin-6 (IL-6)): ≤ 30% | LDH release (SW620 cells [6]; SW620, 60 μM): 30.2% | Protein Intensity, % (PRDX2) ([3]; PC3, 24 h): 32.2% | Protein Intensity, % (PRDX2) ([3]; SW480, 24 h): 69.4% | Protein Intensity, % (PRDX2) ([3]; SW620, 24 h): 58.6% | early apoptosis, % of cells (SW480 cells; SW480, IC50 dose, 72 h): ≤ 40% | early apoptosis, % of cells (PC3 cells): one third | early apoptosis, % of cells (SW620 cells [4]): 35.4% ± 2.8% | reduction of intensity of the 12 tested enzymes [5]: 20.8-87.6%

O=[N+]([O-])c1cc([N+]2=C(Nc3ccc(Cl)c(Cl)c3)[S][Cu-2]23[S]C(Nc2ccc(Cl)c(Cl)c2)=[N+]3c2ccc(Cl)c([N+](=O)[O-])c2)ccc1Cl [Compound 5, Copper (II) complex with 1-(4-chloro-3-nitrophenyl)-3-(3,4-dichlorophenyl)thiourea]
IC50 [1]: ≤ 10 µM

O=[N+]([O-])c1cc([N+]2=C(Nc3ccc(I)cc3)[S][Cu-2]23[S]C(Nc2ccc(I)cc2)=[N+]3c2ccc(Cl)c([N+](=O)[O-])c2)ccc1Cl [Compound 8, Copper (II) complex with 1-(4-iodophenyl)-3-(4-chloro-3-nitrophenyl)thiourea]
Protein Intensity, % (PRDX5) ([2]; PC3, 24 h): 42.0% | Protein Intensity, % (PRDX5) ([2]; SW480, 24 h): 81.7% | Protein Intensity, % (PRDX5) ([2]; SW620, 24 h): 74.4% | reduction of IL-6 secretion, times (interleukin-6 (IL-6)): almost twofold | reduction of IL-6 level, times (interleukin-6 (IL-6)): twofold | LDH release (SW620 cells [6]; SW620, 10 μM): 23% | LDH release (SW620 cells [6]; SW620, 60 μM): 42.4% | Protein Intensity, % (PRDX2) ([3]; PC3, 24 h): 39.9% | Protein Intensity, % (PRDX2) ([3]; SW480, 24 h): 78.3% | Protein Intensity, % (PRDX2) ([3]; SW620, 24 h): 88.6% | early apoptosis, % of cells (SW480 cells; SW480, IC50 dose, 72 h): 48.9% ± 3.4% | late apoptosis, % of cells (SW480 cells; SW480, IC50 dose, 72 h): 20.7% ± 2.8% | apoptosis of SW480 cells (SW480 cells): 47% | early apoptosis, % of cells (PC3 cells): 45.7% ± 3.3% | early apoptosis, % of cells (SW620 cells [4]): approximately 20% | reduction of intensity of the 12 tested enzymes [5]: 31.5–75.2%

O=[N+]([O-])c1cc([N+]2=C(Nc3ccccc3Br)[S][Cu-2]23[S]C(Nc2ccccc2Br)=[N+]3c2ccc(Cl)c([N+](=O)[O-])c2)ccc1Cl [Compound 1, Copper (II) complex with 1-(2-bromophenyl)-3-(4-chloro-3-nitrophenyl)thiourea]
Protein Intensity, % (PRDX5) ([2]; PC3, 24 h): 29% and 29.3% | Protein Intensity, % (PRDX5) ([2]; SW480, 24 h): 77.3% | Protein Intensity, % (PRDX5) ([2]; SW620, 24 h): 88.3% | reduction of IL-6 secretion, times (interleukin-6 (IL-6)): 1.5 times | reduction of IL-6 level, times (interleukin-6 (IL-6)): 1.9 times | reduction of IL-6 concentration, times (interleukin-6 (IL-6); SW620, IC50 dose): 2.4 times | LDH release (SW620 cells [6]; SW620, 10 μM): 22% | LDH release (SW620 cells [6]; SW620, 60 μM): 48% | Protein Intensity, % (PRDX2) ([3]; PC3, 24 h): 42.3% | Protein Intensity, % (PRDX2) ([3]; SW480, 24 h): 95.5% | Protein Intensity, % (PRDX2) ([3]; SW620, 24 h): 92.1% | early apoptosis, % of cells (SW480 cells; SW480, IC50 dose, 72 h): 45.18% ± 3.9% | apoptosis of SW480 cells (SW480 cells): 47% | early apoptosis, % of cells (PC3 cells): one third | early apoptosis, % of cells (SW620 cells [4]): 38.4% ± 2.4%
